Source: US10647690B2, “2,3-epoxy succinyl derivative, preparation method and use thereof” (Institute of Pharmacology and Toxicology Academy of …, priority 2016, dated 2020)
Read-outs that look alike come from different tables or passages of the source.

Experiments:
Assay type in all cases: biochemical
Cathepsin S = biological target: T1, Cathepsin S (Homo sapiens, UniProt P25774); experiment: IC50 determination against Cathepsin S (Biovision kit K149-100); details: CTSS
T1 construct: purchased Biovision K149-100
Description: (§1) 2. Method for determining IC50 of compounds against cathepsin:
IC50 of compounds against Cathepsin S was determined by using Cathepsin S Inhibitor Screening Kit (Product No. K149-100) from Biovision Company.
2.1.1.4 Preparation of Cathepsin S solution: Cathepsin S enzyme (46 μl) was added to Cathepsin S buffer (2254 μl), and mixed well, to prepare Cathepsin S enzyme solution with a volume of 2.3 ml, which was placed on ice for further use.
(§2) 2.1.2 Preparation of compound solutions: 30 mM and 10 mM compound stock solutions, and control compounds were gradiently diluted in DMSO at a ratio of 1:3, wherein the maximum dilution fold was 19683; the gradiently diluted compound solution (3 μl) was added to Cathepsin K, B, L, and S buffer (27 μl), respectively, and mixed well, wherein the control compounds (FF-FMK, F-F-FMK, FF-FMK and Z-FF-FMK) were at the concentrations of 66.67, 22.22, 7.41, 2.47, 0.82, 0.27, 0.091, 0.03, 0.01, 0.0034 and 0 μM, respectively, the test compounds were at the concentrations of 1000, 333.3, 111.1, 37, 12.3, 4.1, 1.4, 0.46, 0.15, 0.05 and 0 μM, respectively, and the final concentration of DMSO was 10%.
2.1.3.4 Cathepsin S: Cathepsin S substrate (90 μl) was added to Cathepsin S buffer (1710 μl), and mixed well, to prepare Cathepsin S substrate solution with a volume of 1.8 ml, which was placed on ice for further use.
(§3) Method for screening cathepsin inhibitors: the cathepsin solution (prepared in Item 2.1.1) was added to a 384-well plate (ProxiPlate-384 Plus, Perkinelmer) at 10 μl/well, and centrifuged at 1000 rpm for Imin; the compound solution (prepared in Item 2.1.2) was then added at 2 μl/well, and every concentration was repeated in two wells; the final concentrations of the test compounds were 100, 33.3, 11.1, 3.7, 1.23, 0.41, 0.14, 0.046, 0.015, 0.005 and 0 μM, respectively, wherein the final concentration of DMSO was 1%; after centrifugation at 1000 rpm for 1 min, the plate was put in a 25° C. incubator for 15 min; the cathepsin substrate solution was then added at 8 µl/well, and centrifuged at 1000 rpm for 1 min; and finally, the fluorescence signal was read in Enspire, wherein the exciting light was at a wavelength of 400 nm, the emitting light was at a wavelength of 505 nm, and continuous reading was performed at 37° C. for 120 min.
(§4) Data analysis: the slope (S) for all the samples was calculated by ΔRFU(RFU2−RFU1) and time ΔT(T2−T1), including negative control (Enzyme Control, EC) and positive control (Inhibitor Control, IC: 10 μM (FF-FMK, F-F-FMK, FF-FMK and Z-FF-FMK), and the calculation formula was as followed: Relative inhibition rate %=(SEC−SS)/(SEC−SIC)*100. The IC50 for each compound was obtained by means of fitting by software GraphPad Prism 5.0.

Cathepsin K = biological target: T2, Cathepsin K (Homo sapiens, UniProt P43235); experiment: IC50 determination against Cathepsin K (Biovision kit K150-100); details: CTSK
T2 construct: purchased Biovision K150-100
T2 sequence (P43235 115-329): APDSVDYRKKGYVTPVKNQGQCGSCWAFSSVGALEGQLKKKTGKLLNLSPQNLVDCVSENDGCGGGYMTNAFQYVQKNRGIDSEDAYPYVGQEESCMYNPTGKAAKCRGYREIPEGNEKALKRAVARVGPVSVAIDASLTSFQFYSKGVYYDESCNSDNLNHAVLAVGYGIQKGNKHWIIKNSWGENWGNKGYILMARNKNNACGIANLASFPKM
Description: as §1
IC50 of compounds against Cathepsin K was determined by using Cathepsin K Inhibitor Screening Kit (Product No. K150-100) from Biovision Company;
2.1.1.1 Preparation of Cathepsin K solution: Cathepsin K enzyme (23 μl) and Cathepsin K reagent (46 μl) were added to Cathepsin K buffer (2231 μl), and mixed well, to prepare Cathepsin K enzyme solution with a volume of 2.3 ml, which was placed on ice for further use.
as §2
2.1.3.1 Cathepsin K: Cathepsin K substrate (90 μl) was added to Cathepsin K buffer (1710 μl), and mixed well, to prepare Cathepsin K substrate solution with a volume of 1.8 ml, which was placed on ice for further use.
as §3, §4

Cathepsin B = biological target: T3, Cathepsin B (Homo sapiens, UniProt P07858); experiment: IC50 determination against Cathepsin B (Biovision kit K147-100); details: for Selectiviy vs Cathepsin K (fold): selectivity for Cathepsin B over Cathepsin K; for Selectiviy vs Cathepsin L (fold): selectivity for Cathepsin B over Cathepsin L; for Selectiviy vs Cathepsin S (fold): selectivity for Cathepsin B over Cathepsin S; for selectivity for Cathepsin B: statement in words, versus Cathepsin K, L, S
T3 construct: purchased Biovision K147-100
Description: as §1
IC50 of compounds against Cathepsin B was determined by using Cathepsin B Inhibitor Screening Kit (Product No. K147-100) from Biovision Company;
2.1.1.2 Preparation of Cathepsin B solution: Cathepsin B enzyme (23 μl) and Cathepsin B reagent (46 μl) were added to Cathepsin B buffer (2231 μl), and mixed well, to prepare Cathepsin B enzyme solution with a volume of 2.3 ml, which was placed on ice for further use.
as §2
2.1.3.2 Cathepsin B: Cathepsin B substrate (90 μl) was added to Cathepsin B buffer (1710 μl), and mixed well, to prepare Cathepsin B substrate solution with a volume of 1.8 ml, which was placed on ice for further use.
as §3, §4

Cathepsin L = biological target: T4, Cathepsin L (Homo sapiens, UniProt P07711); experiment: IC50 determination against Cathepsin L (Biovision kit K161-100); details: CTSL
T4 construct: purchased Biovision K161-100
Description: as §1
IC50 of compounds against Cathepsin L was determined by using Cathepsin L Inhibitor Screening Kit (Product No. K161-100) from Biovision Company;
2.1.1.3 Preparation of Cathepsin L solution: Cathepsin L reagent (3 μl) was added to Cathepsin L enzyme (3 μl), mixed well, and on standing for 1 h, to get 1 mU/μl Cathepsin L enzyme solution. Cathepsin L buffer (24 μl) was added to 1 mU/μl cathepsin L enzyme solution (6 μl), to get 0.2 mU/μl Cathepsin L enzyme solution. 0.2 mU/μl cathepsin L enzyme (23 μl), and DTT (46 μl) were added to Cathepsin L buffer (2231 μl), and mixed well, to prepare Cathepsin L enzyme solution with a volume of 2.3 ml, which was placed on ice for further use.
as §2
2.1.3.3 Cathepsin L: Cathepsin L substrate (45 μl) was added to Cathepsin L buffer (1755 μl), and mixed well, to prepare Cathepsin L substrate solution with a volume of 1.8 ml, which was placed on ice for further use.
as §3, §4

[1] = Exp-1, read-out: IC50 (nM) Exp-1
[2] = Exp-2, read-out: IC50 (nM) Exp-2
[3] = average of Exp-1 and Exp-2, read-out: Ave of IC50
[4] = CTSB, Exp-1, read-out: IC50 (nM) Exp-1
[5] = CTSB, Exp-2, read-out: IC50 (nM) Exp-2
[6] = CTSB, average of Exp-1 and Exp-2, read-out: Ave of IC50
[7] = Table 3, average ± STDEV, read-out: Cathepsin B IC50

T4 sequence (P07711 114-333): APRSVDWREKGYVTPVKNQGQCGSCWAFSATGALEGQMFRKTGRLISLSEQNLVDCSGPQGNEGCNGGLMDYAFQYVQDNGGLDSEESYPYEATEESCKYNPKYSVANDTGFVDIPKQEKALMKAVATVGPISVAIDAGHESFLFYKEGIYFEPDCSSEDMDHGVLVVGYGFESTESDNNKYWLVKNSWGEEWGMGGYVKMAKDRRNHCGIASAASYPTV
T1 sequence (P25774 115-331): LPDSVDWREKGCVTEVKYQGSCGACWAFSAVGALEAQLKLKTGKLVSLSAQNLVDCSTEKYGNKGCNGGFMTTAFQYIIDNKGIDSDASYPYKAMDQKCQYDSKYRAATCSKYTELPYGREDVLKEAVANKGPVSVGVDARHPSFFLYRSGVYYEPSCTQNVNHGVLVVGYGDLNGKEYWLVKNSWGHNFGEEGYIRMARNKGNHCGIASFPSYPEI

CCOC(=O)[C@H]1O[C@@H]1C(=O)N[C@@H](CC(C)C)C(=O)NCCC(C)C [zxy-37, E64d, reference compound]
IC50 (Cathepsin S; [1]): 753 nM | IC50 (Cathepsin S; [2]): 571 nM | IC50 (Cathepsin S; [3]): 662 nM | IC50 (Cathepsin K; [1]): 488 nM | IC50 (Cathepsin K; [2]): 465 nM | IC50 (Cathepsin K; [3]): 477 nM | IC50 (Cathepsin B; [4]): 10.6 nM | IC50 (Cathepsin B; [5]): 13.5 nM | IC50 (Cathepsin B; [6]): 12 nM | IC50 (Cathepsin B; [7]): 12 ± 2.03 nM | Selectiviy vs Cathepsin K (fold) (Cathepsin B): 39 fold | Selectiviy vs Cathepsin L (fold) (Cathepsin B): 15 fold | Selectiviy vs Cathepsin S (fold) (Cathepsin B): 55 fold | IC50 (Cathepsin L; [1]): 171 nM | IC50 (Cathepsin L; [2]): 180 nM | IC50 (Cathepsin L; [3]): 175 nM

CCOC(=O)[C@H]1O[C@@H]1C(=O)N[C@@H](CCSC)C(=O)NCCCc1ccccc1 [Compound 8, (2s, 3s)-2-ethoxycarbonyl-3-[2-[(s)-4-methylthio-1-carbonyl-1-(3-phenylpropylamino)butane]formylamino]epoxysuccinic acid]
IC50 (Cathepsin S; [1]): 10600 nM | IC50 (Cathepsin S; [2]): 9450 nM | IC50 (Cathepsin S; [3]): 10000 nM | IC50 (Cathepsin K; [1]): 2950 nM | IC50 (Cathepsin K; [2]): 1500 nM | IC50 (Cathepsin K; [3]): 2220 nM | IC50 (Cathepsin B; [4]): 17.6 nM | IC50 (Cathepsin B; [5]): 20.7 nM | IC50 (Cathepsin B; [6]): 19.2 nM | IC50 (Cathepsin B; [7]): 19.2 ± 2.26 nM | Selectiviy vs Cathepsin K (fold) (Cathepsin B): 116 fold | Selectiviy vs Cathepsin L (fold) (Cathepsin B): 210 fold | Selectiviy vs Cathepsin S (fold) (Cathepsin B): 524 fold | selectivity for Cathepsin B (Cathepsin B): strong selectivity for Cathepsin B | IC50 (Cathepsin L; [1]): 3610 nM | IC50 (Cathepsin L; [2]): 4450 nM | IC50 (Cathepsin L; [3]): 4030 nM

CCOC(=O)[C@H]1O[C@@H]1C(=O)N[C@@H](CCSC)C(=O)N1CCC(c2ccccc2)CC1 [Compound 13, (2s, 3s)-2-ethoxycarbonyl-3-[2-[(s)-4-methylthio-1-carbonyl-1-(phenylpiperidinyl)butane]formylamino]epoxysuccinic acid]
IC50 (Cathepsin S; [1]): 1900 nM | IC50 (Cathepsin S; [2]): 957 nM | IC50 (Cathepsin S; [3]): 1430 nM | IC50 (Cathepsin K; [1]): 180 nM | IC50 (Cathepsin K; [2]): 148 nM | IC50 (Cathepsin K; [3]): 164 nM | IC50 (Cathepsin B; [4]): 3.76 nM | IC50 (Cathepsin B; [5]): 4.64 nM | IC50 (Cathepsin B; [6]): 4.2 nM | IC50 (Cathepsin B; [7]): 4.2 ± 0.63 nM | Selectiviy vs Cathepsin K (fold) (Cathepsin B): 40 fold | Selectiviy vs Cathepsin L (fold) (Cathepsin B): 1563 fold | Selectiviy vs Cathepsin S (fold) (Cathepsin B): 357 fold | selectivity for Cathepsin B (Cathepsin B): strong selectivity for Cathepsin B | IC50 (Cathepsin L; [1]): 5880 nM | IC50 (Cathepsin L; [2]): 6630 nM | IC50 (Cathepsin L; [3]): 6250 nM

CCOC(=O)[C@H]1O[C@@H]1C(=O)N[C@@H](CCSC)C(=O)NC(CC)CC [Compound 39, (2s, 3s)-2-ethoxycarbonyl-3-[2-[(s)-4-methylthio-1-carbonyl-1-(1-ethylpropylamino)butane]formylamino]epoxysuccinic acid]
IC50 (Cathepsin S; [1]): 5110 nM | IC50 (Cathepsin S; [2]): 8750 nM | IC50 (Cathepsin S; [3]): 6930 nM | IC50 (Cathepsin K; [1]): 1680 nM | IC50 (Cathepsin K; [2]): 1610 nM | IC50 (Cathepsin K; [3]): 1650 nM | IC50 (Cathepsin B; [4]): 68.5 nM | IC50 (Cathepsin B; [5]): 80 nM | IC50 (Cathepsin B; [6]): 74.3 nM | IC50 (Cathepsin B; [7]): 74.3 ± 8.18 nM | Selectiviy vs Cathepsin K (fold) (Cathepsin B): 22 fold | Selectiviy vs Cathepsin L (fold) (Cathepsin B): 129 fold | Selectiviy vs Cathepsin S (fold) (Cathepsin B): 193 fold | selectivity for Cathepsin B (Cathepsin B): strong selectivity for Cathepsin B | IC50 (Cathepsin L; [1]): 9250 nM | IC50 (Cathepsin L; [2]): 9950 nM | IC50 (Cathepsin L; [3]): 9600 nM

CCOC(=O)[C@H]1O[C@@H]1C(=O)N[C@@H](CCSC)C(=O)NCCCCc1ccccc1 [Compound 40, (2s, 3s)-2-ethoxycarbonyl-3-[2-[(s)-4-methylthio-1-carbonyl-1-(4-phenylbutylamino)butane]formylamino]epoxysuccinic acid]
IC50 (Cathepsin S; [1]): 834 nM | IC50 (Cathepsin S; [2]): 1510 nM | IC50 (Cathepsin S; [3]): 1170 nM | IC50 (Cathepsin K; [1]): 704 nM | IC50 (Cathepsin K; [2]): 606 nM | IC50 (Cathepsin K; [3]): 655 nM | IC50 (Cathepsin B; [4]): 20.3 nM | IC50 (Cathepsin B; [5]): 27.1 nM | IC50 (Cathepsin B; [6]): 23.7 nM | IC50 (Cathepsin B; [7]): 23.7 ± 4.78 nM | Selectiviy vs Cathepsin K (fold) (Cathepsin B): 28 fold | Selectiviy vs Cathepsin L (fold) (Cathepsin B): 185 fold | Selectiviy vs Cathepsin S (fold) (Cathepsin B): 149 fold | selectivity for Cathepsin B (Cathepsin B): strong selectivity for Cathepsin B | IC50 (Cathepsin L; [1]): 4160 nM | IC50 (Cathepsin L; [2]): 4610 nM | IC50 (Cathepsin L; [3]): 4390 nM

CCCCCCNC(=O)[C@H](CCSC)NC(=O)[C@H]1O[C@@H]1C(=O)OCC [Compound 5, (2s, 3s)-2-ethoxycarbonyl-3-[2-[(s)-4-methylthio-1-carbonyl-1-(hexylamino)butane]formylamino]epoxysuccinic acid]
IC50 (Cathepsin S; [1]): 4080 nM | IC50 (Cathepsin S; [2]): 4140 nM | IC50 (Cathepsin S; [3]): 4110 nM | IC50 (Cathepsin K; [1]): 1680 nM | IC50 (Cathepsin K; [2]): 1320 nM | IC50 (Cathepsin K; [3]): 1500 nM | IC50 (Cathepsin B; [4]): 7.19 nM | IC50 (Cathepsin B; [5]): 9.33 nM | IC50 (Cathepsin B; [6]): 8.27 nM | IC50 (Cathepsin B; [7]): 8.27 ± 1.51 nM | Selectiviy vs Cathepsin K (fold) (Cathepsin B): 181 fold | Selectiviy vs Cathepsin L (fold) (Cathepsin B): 278 fold | Selectiviy vs Cathepsin S (fold) (Cathepsin B): 497 fold | selectivity for Cathepsin B (Cathepsin B): strong selectivity for Cathepsin B | IC50 (Cathepsin L; [1]): 2270 nM | IC50 (Cathepsin L; [2]): 2330 nM | IC50 (Cathepsin L; [3]): 2300 nM
